From US20250009740A1, “METHODS AND COMPOSITIONS FOR TARGETING ALTERNATIVE METABOLISM ALONG WITH FLT3 INHIBITOR-MEDIATED ANTILEUKEMIC ACTIONS” (Ohio State Innovation Foundation, priority 2021, published 2025) come the findings set out here.

The test system of data set [1] is MOLM-13 cells. Put plainly: Proliferation assay of FLT3 inhibitor with telaglenastat, HSA analysis. In kind it is cell-based, human. The conditions noted are these: MOLM-13, 48 hours. On the procedure:
Proliferation assay of a range of doses of midostaurin or gilteritinib with telaglenstat on MOLM-13 cells treated for 48 hours. Highest single agent (HSA) analysis was used to determine regions of synergy.
FLT3-ITD inhibition reduces glutaminolysis by blocking glutamine influx through SLC1A5, the primary glutamine transporter^15,16. SLC38A2 can serve as a redundant glutamine transporter to compensate the deficiency of SLC1A5^17.

Data set [2] has as its system MOLM-13 cells. Put plainly: Pairwise dose combination synergy, MTS cell viability, HSA analysis. The format is cell-based, human. On the procedure: (§1) For dinaciclib, cells were treated for 2 hours with the drug before it was washed off and all other drugs were incubated with cells for 48-96 hours. Cell viability was measured with MTS. HSA analysis was used to determine regions of synergy. […] MOLM-13 and MV4-11 cells were treated with vehicle, 50 nM or 100 nM brequinar in combination with vehicle, 4 nM or 8 nM gilteritinib for 96 hours before cells were fixed and permeabilized for intracellular BV421-Ki67 staining and flow cytometry analysis. […] Primary cells were treated with vehicle, single agents or drug combination before cell apoptosis was measured with Annexin V/PI staining. Results are shown as mean±SEM of 3 biological replicates. […] Bone marrow cells from 3 FLT3-ITD patients, 2 FLT3-WT patients and 2 healthy donors were seeded into Methocult at 50,000 cells per condition with vehicle, single agents or drug combinations. The numbers of colonies were quantified for 1st and 2nd platings after 14 days post seeding. Results are shown as means of 2 biological replicates. * p<0.05 in comparison with EPZ015666, dinaciclib or brequinar alone.
(§2) Next, it was determined whether pharmacologic inhibition of CDK9, DHODH or PRMT5, using commercially available inhibitors (brequinar for DHODH, dinaciclib for CDK1/2/5/9, and EPZ015666 for PRMT5) is synergistic with gilteritinib in AML cells.

For data set [3], the system named is MV4-11 cells. The description is as above. In kind it is cell-based. On the procedure: as §1, §2
In data set [4] the test system is MOLM-13 luciferase cells. Put plainly: MOLM-13-Luc+ FLT3-ITD AML xenograft in NCG mice. In kind it is in vivo, mouse. The conditions noted are these: 10 mg/kg dinaciclib weekly i.p., 30 mg/kg gilteritinib daily oral gavage, or both; vehicle 24 days.
Protocol: (A) NCG mice were engrafted with MOLM-13 cells expressing luciferase and treated with vehicle, 10 mg/kg dinaciclib weekly, 30 mg/kg gilteritinib daily, or dinaciclib/gilteritinib combination.
Animal Studies All animal studies were carried out under protocols approved by The Ohio State University Institutional Animal Care and Use Committee (IACUC). 1×10^5 MOLM-13 luciferase cells were injected via tail vein into male NOD-Prkdc^em26Cd52Il2rg^em26Cd22/NjuCrl (NCG) from the Charles River Laboratory. On day 4 post-engraftment, mice were randomized to treatment arms. Mice received the following drugs and doses: weekly intraperitoneal injections of 10 mg/kg dinaciclib (MedChemExpress HY-10492) in 20% cyclodextrin (CTD THPB-P) diluted just prior to injection, daily oral gavage of 30 mg/kg gilteritinib (MedChemExpress HY-1432) in 6% drug w/w gelucire 44/14 (Gattefosse, France) aliquoted and mixed with drug weekly, oral gavage of vehicle control (gelucire 44/14), or combination therapy at single-agent regimens.
Data set [5] deals with shRNA-stable MOLM-13 cells. The experiment in a line: Annexin V/PI flow cytometry of shRNA-stable cells treated with gilteritinib. The conditions noted are these: 8 nM gilteritinib, 120 hours. In kind it is cell-based, human. On the procedure: (A-D) Knockdown efficiency of selected targets by shRNA as detected by qPCR and Western blotting; GAPDH or β-actin serves as loading control. N=2. *p<0.05; **p<0.01; (E-H) Dose-response curves of shCDK9, shDHODH, shPRMT5 and shCDK7-stable MOLM-13 cells in response to 120-hour gilteritinib treatment. Cell viability was measured with MTS. Results are shown as mean±SEM of 4 technical replicates and 3-4 biological replicates. ***p-value<0.0001; ns=not significant. I) Knockdown of CDK9, PRMT5 or DHODH but not CDK7 with shRNA increases the frequency of apoptotic AML cell lines with gilteritinib. Parental, scrambled or gene-targeting shRNA-stable MOLM-13 cells were treated with 8 nM gileritinib for 120 hours and stained with Annexin V/PI for flow cytometry analysis. Data are shown as mean±SEM of % population from triplicates.
DHODH, CDK9 and PRMT5 genes were selected for validation, in light of their strong synergistic interactions with gilteritinib and availability of clinical grade inhibitors. MOLM-13 cells were transduced with shRNA targeting each of these genes and knockdown efficiencies were confirmed via qPCR and Western Blotting (FIG. 2A-D). Scrambled or gene-targeting shRNA transduced cells were treated with gilteritinib (2-25 nM dose range) for 120 hours followed by MTS analysis to quantify cell proliferation.
Background: In flow cytometry, cells or beads pass a laser one at a time.

Where [6] appears, read: gilteritinib paired with dinaciclib or EPZ015666, dinaciclib 2 hours then washed off, others 48-96 hours.
[7] abbreviates: gilteritinib paired with dinaciclib or EPZ015666.

For `O=C(Cc1cccc(OC(F)(F)F)c1)Nc1ccc(CCCCc2nnc(NC(=O)Cc3ccccn3)s2)nn1` [telaglenastat], in data set [1], the “cytotoxic effect in combination with gilteritinib” value is “synergistic cytotoxic effect” and the “cytotoxic effect in combination with midostaurin” value was “synergistic cytotoxic effect”.

For `CCc1cnn2c(NCc3ccc[n+]([O-])c3)cc(N3CCCC[C@H]3CCO)nc12` [dinaciclib], in data set [2] (setting [6]), the “synergy range (drug concentration)” value fell in the range of 0.0075 to 0.01 nM. Further, the “maximum synergy (drug concentration)” value in data set [3] (setting [7]) is 0.0075 to 0.01 nM. In data set [4], the mean survival time was found to be 27.5 days.

As for `O=C(NC[C@H](O)CN1CCc2ccccc2C1)c1cc(NC2COC2)ncn1` [EPZ015666], the “synergy range (drug concentration)” value in data set [2] (in combination with 2-10 nM gilteritinib) lay in the range of 1000 to 100000 nM. Moreover, the “maximum synergy (drug concentration)” value in data set [3] (in combination with 0.1-8 nM gilteritinib) lay in the range of 3000 to 100000 nM.

On to `CCc1nc(C(N)=O)c(Nc2ccc(N3CCC(N4CCN(C)CC4)CC3)c(OC)c2)nc1NC1CCOCC1` [gilteritinib], for which the “synergy range (drug concentration)” value in data set [2] (setting [6]) was 2 to 10 nM. The “maximum synergy (drug concentration)” value in data set [3] (setting [7]) was in the range of 0.1 to 8 nM. In addition, the mean survival time in data set [4] stood at 39 days. Further, the “increase of necroptotic/apoptotic cells vs scrambled control” value in data set [5] (knockdown of CDK9) is on record as 9 fold; in data set [5] (knockdown of DHODH) it was 5 fold; in data set [5] (knockdown of PRMT5), 2.6 fold.
